Results published in patent US20060122276A1, “Agent for inhibiting membrane virus reproduction, method for the production thereof, pharmaceutical composition and method for inhibiting viral infections” (priority 2003, published 2006).
Entries after “also recorded” stand apart in the source; their conditions may differ.

Experiments:
hepatitis C virus = assay: Residual infectious activity (titers) of hepatitis C virus in SPEV culture medium; format: cell-based, hepatitis C virus genotype 1b; settings: for Lowering of virus titers in SPEV cell cultures: administered simultaneously with the virus
Experimental: In our work we used cytopathogenic strain of hepatitis C virus belonging to geno-type 1b. The strain was isolated from the blood serum of a patient suffering from chronic viral hepatitis C, identified as hepatic C virus. Infective doses of HSV equal to 10 TCD of 50/20 μl were used in the investigation.
For titrating the residual infectiousness of the virus, the same line of porcine embryo kidney cells (SPEV) was used.
For studying the antiviral activity of the preparation, the preparation was introduced in various concentrations into the SPEV cell cultures at the moment of infection and in 24 hours after the infection with hepatitis C virus on the cell in 24-cell plastic culture plates.
For determining the residual infectious activity of HSV, samples of the culture fluid were taken from the plate cells three days after the treatment of the infected cells with the preparation and titrated on the SPEV cell cultures. The infectious activity of HSV was taken into account from the results of titration on the 6-7th day after the infection, when maximum cytopathogenic action of the virus developed, applying the Rid and Mench formula for calculating the titer of the Hepatitis C virus.

[1] = system: African green monkey kidney cells (VERO); assay: Cytotoxic action on non-infected VERO cells; format: cell-based; settings: 500 and 1000 μg/ml; 3-days follow-up
Hep 2 cells = assay: Proliferation of human epithelial carcinoma Hep 2 cells; format: cell-based
Experimental: In our experiments we used a 1 day culture of passage 14 Hep 2 cells—reinoculated cells of human epithelial carcinoma.
The growth medium contained DMEM+glutamine+antibiotics+5% FBS (fetal bovine serum). The supporting medium was DMEM/needle with a double kit of amino acids and vitamins+glutamine+antibiotics+10% of cattle serum.
The effect of such influence was most pronounced on the seventh day at the concentration of 100 μg/ml: there appeared discontinuities in the monolayer and there were many cell conglomerates in the culture medium.
The monolayer was removed from the glass plate in the 500 μl volume of the medium. The cells were precipitated from 200 μl, resuspended in a lysing buffer; electrophoresis of proteins was carried out in 12.5% PAAG with Kumashi staining.
A reduction in the intensity of protein profiles was observed on the second day and most dramatically on the seventh day at the studied concentrations of the preparation as compared with control. This can be indicative of a reduction in the number of cells because of inhibition of the mitotic activity of cells in the presence of the preparation. On the 7th day of the action of the preparation a reduction in the number of DNA compared with control was observed. Checking for the presence of DNA fragmentation has shown its absence, i.e., apoptosis manifestations were not detected.

[2] = system: herpes simplex virus (HSV-1); assay: Antiviral activity with respect to HSV-1 in VERO cells; format: cell-based, type 1, strain L2; settings: 100 TCD50, 48 hours after the infection
Excerpt: Herpes simplex virus, type 1, strain L2, replicated in VERO cells was used in the investigation.
[…] acyclovir was used as positive control

HIV-1 = assay: Treatment of HIV-1-infected patients, blood sample analyses
Experimental: The treatment was carried out in accordance with the following schedule: 20 mg rectal suppositories every three days, one suppository a day during 3 months.

Q: For “sodium salt of fullerene-polyamino-caproic acid”, which “Titers of hepatitis C virus in medium samples taken on the 3rd day after infecting” value (“Titers of hepatitis C virus” below) (hepatitis C virus; 6.25 μg/ml, introduced 24 hours after infecting (control 9.1)) is on record?
A: 9.0 1 g TCD 50/20 μl

Q: And the “Titers of hepatitis C virus” value (hepatitis C virus; 6.25 μg/ml, introduced at the moment of infecting (control 9.5))?
A: 9.7 1 g TCD 50/20 μl

Q: What about the “Titers of hepatitis C virus” value (hepatitis C virus; 12.5 μg/ml, introduced 24 hours after infecting (control 9.1)) of the same substance?
A: 9.9 1 g TCD 50/20 μl

Q: And the “Titers of hepatitis C virus” value (hepatitis C virus; 12.5 μg/ml, introduced at the moment of infecting (control 9.5))?
A: 9.5 1 g TCD 50/20 μl

Q: And the “Titers of hepatitis C virus” value (hepatitis C virus; 25 μg/ml, introduced 24 hours after infecting (control 9.1))?
A: 9.5 1 g TCD 50/20 μl

Q: What about the “Titers of hepatitis C virus” value (hepatitis C virus; 25 μg/ml, introduced at the moment of infecting (control 9.5)) of the same substance?
A: 9.3 1 g TCD 50/20 μl

Q: And the “Lowering of virus titers in SPEV cell cultures” value (hepatitis C virus; 50 μg/ml, listed as preparation)?
A: 3.0 lg

Q: What about the “Titers of hepatitis C virus” value (hepatitis C virus; 50 μg/ml, introduced 24 hours after infecting (control 9.1)) of the same substance?
A: 8.5 1 g TCD 50/20 μl

Q: And the “Titers of hepatitis C virus” value (hepatitis C virus; 50 μg/ml, introduced at the moment of infecting (control 9.5))?
A: 6.2 1 g TCD 50/20 μl

Q: What about the “Lowering of virus titers in SPEV cell cultures” value (hepatitis C virus; 100 μg/ml) of the same substance?
A: 7.4 lg

Q: And the “Titers of hepatitis C virus” value (hepatitis C virus; 100 μg/ml, introduced 24 hours after infecting (control 9.1))?
A: 3.0 1 g TCD 50/20 μl

Q: What about the “Titers of hepatitis C virus” value (hepatitis C virus; 100 μg/ml, introduced at the moment of infecting (control 9.5)) of the same substance?
A: 2.1 1 g TCD 50/20 μl

Q: And the “Cytodestructive action on non-infected VERO cells” value [1]?
A: has not revealed cytodestructive action

Q: What about the “Number of DNA compared with control” value (Hep 2 cells; 7th day) of the same substance?
A: reduction

Q: And the “Proliferation of Hep 2 cells (monolayer formation)” value (Hep 2 cells; 10, 50 and 100 μg/ml, most pronounced at 100 μg/ml)?
A: pronounced inhibition; also recorded: inhibits the formation of a monolayer

Q: What about the “Intensity of protein profiles compared with control” value (Hep 2 cells; second day and most dramatically seventh day, 10, 50 and 100 μg/ml) of the same substance?
A: reduction

Q: And the “Protection of VERO cells against the cytodestructive action of HSV-1” value ([2]; 10 μg/ml)?
A: full protection

Q: What about the “Protection of VERO cells from the cytodestructive action of HSV-1” value ([2]; 1.0, 10 and 50 μg/ml, introduced 30 and 60 minutes after the infection) of the same substance?
A: full protection

Q: What about the “Condition of the patients” value (HIV-1; HIV-1-infected patients, 20 mg rectal suppositories, 3 months) of the same substance?
A: improvement

Q: What about the “Virus titer (value reciprocal to the dilution of sample that gives 50% CPE or syncytia)” value (HIV-1; Patient A, after 1 month, 20 mg rectal suppository every day, before treatment 8) of the same substance?
A: 2

Q: And the “T4-lymphocytes, mm^3” value (HIV-1; Patient A, after 1 month, 20 mg rectal suppository every day, before treatment 59)?
A: 355 mm^3

Q: What about the “T8-lymphocytes, mm^3” value (HIV-1; Patient A, after 1 month, 20 mg rectal suppository every day, before treatment 63) of the same substance?
A: 455 mm^3

Q: What about the “PCR, RNA, copies/ml” value (HIV-1; Patient A, after 1 month, 20 mg rectal suppository every day, before treatment 1,200,000) of the same substance?
A: 72,000 copies/ml

Q: What about the “Virus titer (value reciprocal to the dilution of sample that gives 50% CPE or syncytia)” value (HIV-1; Patient A, after 2 months, 20 mg rectal suppository every day, before treatment 8) of the same substance?
A: 2

Q: What about the “T4-lymphocytes, mm^3” value (HIV-1; Patient A, after 2 months, 20 mg rectal suppository every day, before treatment 59) of the same substance?
A: 234 mm^3

Q: What about the “T8-lymphocytes, mm^3” value (HIV-1; Patient A, after 2 months, 20 mg rectal suppository every day, before treatment 63) of the same substance?
A: 219 mm^3

Q: What about the “PCR, RNA, copies/ml” value (HIV-1; Patient A, after 2 months, 20 mg rectal suppository every day, before treatment 1,200,000) of the same substance?
A: 43,000 copies/ml

Q: And the “Virus titer (value reciprocal to the dilution of sample that gives 50% CPE or syncytia)” value (HIV-1; Patient A, after 3 months, 20 mg rectal suppository every day, before treatment 8)?
A: 0

Q: And the “T4-lymphocytes, mm^3” value (HIV-1; Patient A, after 3 months, 20 mg rectal suppository every day, before treatment 59)?
A: 381 mm^3

Q: What about the “T8-lymphocytes, mm^3” value (HIV-1; Patient A, after 3 months, 20 mg rectal suppository every day, before treatment 63) of the same substance?
A: 409 mm^3

Q: And the “PCR, RNA, copies/ml” value (HIV-1; Patient A, after 3 months, 20 mg rectal suppository every day, before treatment 1,200,000)?
A: 44,000 copies/ml

Q: And the “Virus titer (value reciprocal to the dilution of sample that gives 50% CPE or syncytia)” value (HIV-1; Patient B, after 1 month, 20 mg rectal suppositories every three days, before treatment 4)?
A: 128

Q: What about the “T4-lymphocytes, mm^3” value (HIV-1; Patient B, after 1 month, 20 mg rectal suppositories every three days, before treatment 163) of the same substance?
A: 581 mm^3

Q: What about the “T8-lymphocytes, mm^3” value (HIV-1; Patient B, after 1 month, 20 mg rectal suppositories every three days, before treatment 257) of the same substance?
A: 464 mm^3

Q: What about the “PCR, RNA, copies/ml” value (HIV-1; Patient B, after 1 month, 20 mg rectal suppositories every three days, before treatment 140,000) of the same substance?
A: 180,000 copies/ml

Q: And the “Virus titer (value reciprocal to the dilution of sample that gives 50% CPE or syncytia)” value (HIV-1; Patient B, after 2 months, 20 mg rectal suppositories every three days, before treatment 4)?
A: 2

Q: What about the “T4-lymphocytes, mm^3” value (HIV-1; Patient B, after 2 months, 20 mg rectal suppositories every three days, before treatment 163) of the same substance?
A: 329 mm^3

Q: What about the “T8-lymphocytes, mm^3” value (HIV-1; Patient B, after 2 months, 20 mg rectal suppositories every three days, before treatment 257) of the same substance?
A: 329 mm^3

Q: What about the “PCR, RNA, copies/ml” value (HIV-1; Patient B, after 2 months, 20 mg rectal suppositories every three days, before treatment 140,000) of the same substance?
A: 3,500 copies/ml

Q: What about the “Virus titer (value reciprocal to the dilution of sample that gives 50% CPE or syncytia)” value (HIV-1; Patient B, after 3 months, 20 mg rectal suppositories every three days, before treatment 4) of the same substance?
A: 1

Q: And the “T4-lymphocytes, mm^3” value (HIV-1; Patient B, after 3 months, 20 mg rectal suppositories every three days, before treatment 163)?
A: 325 mm^3

Q: What about the “T8-lymphocytes, mm^3” value (HIV-1; Patient B, after 3 months, 20 mg rectal suppositories every three days, before treatment 257) of the same substance?
A: 401 mm^3

Q: And the “PCR, RNA, copies/ml” value (HIV-1; Patient B, after 3 months, 20 mg rectal suppositories every three days, before treatment 140,000)?
A: 2,000 copies/ml
